Like-named read-outs stand apart in the source and are kept apart here.
Columns and labels:
Mcl-1 = Mcl-1 (Homo sapiens (Human), UniProt Q07820); assay: Fluorescence polarization anisotropy (FPA) competition assay, FITC-Bak or FITC-Bim BH3 peptide; format: binding; details: read-out: Ki for Inhibition of Mcl-1 by FPA assay
[1] = test system: H929 human cancer cell lines; assay: Cellular viability / proliferation (Cell TiterGlo, 72 h); format: cell-based
Summary of the method: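 Plating is at 1,000 cells/well in 10% FBS medium; after 24 h, compound is added as a 2-fold series starting at 50 μM with under 1% DMSO.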

[2] = Homo sapiens, NCI-H929, 72 h, read-out: GI50 on cellular proliferation of H929 human cancer cell lines, H929 cells, 72 h, Cell TiterGlo, 10% FBS

Sequence of Mcl-1 (Q07820 172-327): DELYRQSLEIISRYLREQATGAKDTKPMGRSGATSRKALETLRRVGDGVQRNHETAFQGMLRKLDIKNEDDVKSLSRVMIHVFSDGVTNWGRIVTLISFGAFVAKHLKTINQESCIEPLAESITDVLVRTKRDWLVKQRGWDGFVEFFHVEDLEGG

Cc1cc(OCCCc2c3n(c4c(-c5c(C)nn(C)c5C)c(Cl)ccc24)[C@H](C)CN(c2ccc(C(=O)O)c4ccn(C)c24)C3=O)cc(C)c1Cl [Example 52, (R)-7-(7-chloro-10-(3-(4-chloro-3,5-dimethylphenoxy)propyl)-4-methyl-1-oxo-6-(1,3,5-trimethyl-1H-pyrazol-4-yl)-3,4-dihydropyrazino[1,2-a]indol-2(1H)-yl)-1-methyl-1H-indole-4-carboxylic acid]
Ki (Mcl-1): < 0.001 µM
GI50 [1, 2]: 0.47 µM

Cc1cc(OCCCc2c3n(c4c(-c5c(C)nn(C)c5C)c(Cl)ccc24)[C@H](C)CN(c2cn(C)c4c(C)cc(C(=O)O)cc24)C3=O)cc(C)c1Cl [Example 145, (R)-3-(7-chloro-10-(3-(4-chloro-3,5-dimethylphenoxy)propyl)-4-methyl-1-oxo-6-(1,3,5-trimethyl-1H-pyrazol-4-yl)-3,4-dihydropyrazino[1,2-a]indol-2(1H)-yl)-1,7-dimethyl-1H-indole-5-carboxylic acid]
Ki (Mcl-1): < 0.001 µM
GI50 [1, 2]: 0.36 µM

COc1ccc(N2C[C@@H](C)n3c(c(CCCOc4cc(C)c(Cl)c(C)c4)c4ccc(Cl)c(-c5c(C)nn(C)c5C)c43)C2=O)c2c1cc(C(N)=O)n2Cc1ccccn1 [Example 466, (R)-7-(7-Chloro-10-(3-(4-chloro-3,5-dimethylphenoxy)propyl)-4-methyl-1-oxo-6-(1,3,5-trimethyl-1H-pyrazol-4-yl)-3,4-dihydropyrazino[1,2-a]indol-2(1H)-yl)-4-methoxy-1-(pyridin-2-ylmethyl)-1H-indole-2-carboxamide]
Ki (Mcl-1): 0.0018 µM
GI50 [1, 2]: 0.3 µM

Cc1cc(OCCCc2c3n(c4c(-c5c(C)n[nH]c5C)c(Cl)ccc24)[C@H](C)CN(c2cn(C)c4c(C)cc(C(=O)O)cc24)C3=O)cc(C)c1Cl [Example 160, (R)-3-(7-chloro-10-(3-(4-chloro-3,5-dimethylphenoxy)propyl)-6-(3,5-dimethyl-1H-pyrazol-4-yl)-4-methyl-1-oxo-3,4-dihydropyrazino[1,2-a]indol-2(1H)-yl)-1,7-dimethyl-1H-indole-5-carboxylic acid]
Ki (Mcl-1): 0.0011 µM
GI50 [1, 2]: 0.69 µM

Cc1cc(OCCCc2c3n(c4c(-c5c(C)nn(C)c5C)c(Cl)ccc24)[C@H](C)CN(c2cccc4cc(C(N)=O)n(C)c24)C3=O)cc(C)c1Cl [Example 377, (R)-7-(7-chloro-10-(3-(4-chloro-3,5-dimethylphenoxy)propyl)-4-methyl-1-oxo-6-(1,3,5-trimethyl-1H-pyrazol-4-yl)-3,4-dihydropyrazino[1,2-a]indol-2(1H)-yl)-1-methyl-1H-indole-2-carboxamide]
Ki (Mcl-1): 0.0049 µM
GI50 ([1]; read-out: GI50 on cellular proliferation of H929 human cancer cell lines, H929 cells, 72 h, Cell TiterGlo, 10% FBS): 0.63 µM

Cc1cc(OCCCc2c3n(c4c(-c5c(C)ncnc5C)c(Cl)ccc24)CCCN(c2cccc4c(C(=O)O)cccc24)C3=O)cc(C)c1Cl [Example 151, 5-[8-Chloro-11-[3-(4-chloro-3,5-dimethyl-phenoxy)propyl]-7-(4,6-dimethylpyrimidin-5-yl)-1-oxo-4,5-dihydro-3H-[1,4]diazepino[1,2-a]indol-2-yl]naphthalene-1-carboxylic acid]
Ki (Mcl-1): < 0.001 µM
GI50 [1, 2]: 2.1 µM

COc1cc(C(=O)O)cc(N2CCCn3c(c(CCCOc4cc(C)c(Cl)c(C)c4)c4ccc(Cl)c(-c5c(C)nn(C)c5C)c43)C2=O)c1OCCO [Example 62, 3-[8-chloro-11-[3-(4-chloro-3,5-dimethyl-phenoxy)propyl]-1-oxo-7-(1,3,5-trimethylpyrazol-4-yl)-4,5-dihydro-3H-[1,4]diazepino[1,2-a]indol-2-yl]-4-(2-hydroxyethoxy)-5-methoxy-benzoic acid]
Ki (Mcl-1): < 0.001 µM
GI50 [1, 2]: 11 µM

Cc1cc(OCCCc2c3n(c4c(-c5c(C)nn(C)c5C)c(Cl)ccc24)[C@H](C)CN(c2ccnc4c2cc(C(=O)O)n4C)C3=O)cc(C)c1Cl [Example 169, (R)-4-(7-chloro-10-(3-(4-chloro-3,5-dimethylphenoxy)propyl)-4-methyl-1-oxo-6-(1,3,5-trimethyl-1H-pyrazol-4-yl)-3,4-dihydropyrazino[1,2-a]indol-2(1H)-yl)-1-methyl-1H-pyrrolo[2,3-b]pyridine-2-carboxylic acid]
Ki (Mcl-1): < 0.001 µM
GI50 [1, 2]: 2.6 µM
